Numbered stars: 1 amine (or outer) side, 2 acyl side, 3 side chain; on linkers, the order of the positions; unused ones are H or OH. Square brackets hold non-standard residues; d marks the D form. Peptide text beside a SMILES is read from it. * marks the point of attachment. DOTA = O=C(O)CN1CCN(CC(=O)O)CCN(CC(=O)*)CCN(CC(=O)O)CC1; Ala(9-anthryl) = N[C@@H](Cc1c2ccccc2cc2ccccc12)C(=O)O; Gly(N-(3-F-4-Me-benzyl)) = Cc1ccc(CNCC(=O)*)cc1F; Acetyl(2-(HOCH2CH2OCH2CH2O)) = O=C(COCCOCCO)*; Api(1-amidino) = N=C(N)N1CCC(N)(C(=O)O)CC1; Phe(3-F) = N[C@@H](Cc1cccc(F)c1)C(=O)O; d2Nal = N[C@H](Cc1ccc2ccccc2c1)C(=O)O; X1 = O=C(CN1CCC(N[*:1])CC1)[*:2]; 4Pal = N[C@@H](Cc1ccncc1)C(=O)O; d4Pal = N[C@H](Cc1ccncc1)C(=O)O; N(octyl)Gly = CCCCCCCCNCC(=O)O; X5 = O=C(CNCc1ccc2ccccc2c1)*; Api = NC1(C(=O)O)CCNCC1; PEG2 = NCCOCCOCCC(=O)O; Ahx = NCCCCCC(=O)O; azaGly = NNC(=O)O
biological target: human kisspeptin receptor (Homo sapiens (Human), UniProt Q969F8); assay: Human KISS1R binding assay (membrane competition binding); details: 90 min at room temperature; competition with 0.2 nM [125I]-metastin (45-54); Flp-In T-Rex 293 kisspeptin membranes; metal complexes nonradioactive Ga, In, Lu; read-out: hKiSSR Binding Ki (90 min)
Procedure: Crude membrane fractions are prepared from Flp-In T-Rex 293 (Thermo Fisher) cell line expressing the human kisspeptin receptor. The cells are grown to 85-100% confluence on standard tissue culture dishes in Dulbecco's Modified Eagles Medium (DMEM) (Corning) supplemented with 10% FBS (Gemini), 1% penicillin-streptomycin-glutamine (Gibco), 500 μg/mL hygromycin, and 15 μg/mL blastacidin. 48 hrs prior to preparing membranes 10 μg/ml of tetracycline is added to the culture media to induce receptor expression. To prepare membranes, cells are scraped and collected in 1× Dulbecco's phosphate buffered saline (Corning) and then pelleted at 1000 RPMs. The cell pellet is reconstituted in membrane preparation buffer (20 mM HEPES, 6 mM MgCl2 and 1 mM EGTA, protease inhibitor tablets (Pierce), pH 7.4) and placed in a cell disruption vessel (Parr Instrument company) at 1000 PSI for 30 min on ice. The pressurized contents are then released and spun down at 1000 RPMs and the supernatant is collected and further centrifuged at 15,000 RPMs to pellet the membranes. The membrane pellet is resuspended in membrane preparation buffer, snap frozen and stored at −80° C. for later use.
The human kisspeptin membrane binding assay utilizes the following components: radiolabel [^125I]-metastin (45-54) (human) (Perkinhmer), crude Flp-In T-Rex 293 kisspeptin membranes, and competing small molecule and peptide ligands. The assay is initiated by combining in assay buffer (50 mM TrisHCl, 5 mM MgCl2, 2 mM EGTA, 10 mM CaCl2, 0.1% BSA, pH 7.4) a dose response of competing ligand (final concentrations are typically 0-10,000 nM), 5-10 μg of Flp-In T-Rex 293 kisspeptin membranes, and 0.2 n M [^125I]-metastin (45-54) in a 96-well assay plate and allowed to incubate 90 minutes at room temperature. Assay contents are then filtered through unifilter CF/C: microplates (PerkinElmer) pre-soaked with 0.5% BSA and washed with 9×400 μL of cold wash buffer (10 mM HEPES, 500 mM NaCl, 0.1% Tween-20, pH7.4). Assay plates are read using a Microbeta^2 (PerkinElmer) and Ki values for compounds are determined using a GraphPad Prism 9.3 non-linear regression analysis.

Sequence of human kisspeptin receptor (Q969F8 whole entry): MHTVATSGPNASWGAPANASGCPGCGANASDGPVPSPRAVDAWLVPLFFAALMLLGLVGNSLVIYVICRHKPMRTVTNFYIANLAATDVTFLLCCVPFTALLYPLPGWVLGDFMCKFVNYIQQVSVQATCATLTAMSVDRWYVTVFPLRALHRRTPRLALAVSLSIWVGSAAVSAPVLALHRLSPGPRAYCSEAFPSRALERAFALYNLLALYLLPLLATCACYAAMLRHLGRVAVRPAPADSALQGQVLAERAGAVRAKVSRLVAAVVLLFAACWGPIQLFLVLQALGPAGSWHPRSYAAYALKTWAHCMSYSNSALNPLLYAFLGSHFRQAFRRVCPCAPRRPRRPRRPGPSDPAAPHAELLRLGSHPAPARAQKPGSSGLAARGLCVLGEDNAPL

SMILES	Ki
Cc1ccc(CNCC(=O)N2CCC(NC(=O)[C@H](CC(C)C)NC(=O)NNC(=O)[C@H](Cc3ccccc3)NC(=O)[C@@H](NC(=O)[C@H](CC(N)=O)NC(=O)[C@@H](Cc3c[nH]c4ccccc34)NC(=O)[C@@H](Cc3ccc(O)cc3)NC(=O)CCOCCOCCNC(=O)CN3CCN(CC(=O)O)CCN(CC(=O)O)CCN(CC(=O)O)CC3)[C@@H](C)O)(C(=O)N[C@@H](Cc3c[nH]c4ccccc34)C(N)=O)CC2)cc1F [Compound 382] ({DOTA-PEG2}-[dY][dW]NTF[azaGly]L[Api](Gly(N-(3-F-4-Me-benzyl)))W-NH2)	< 10 nM
CC(C)C[C@H](NC(=O)NNC(=O)[C@H](Cc1ccccc1)NC(=O)[C@@H](NC(=O)[C@H](CC(N)=O)NC(=O)[C@H](Cc1c2ccccc2cc2ccccc12)NC(=O)[C@@H](Cc1ccc(O)cc1)NC(=O)CN1CCN(CC(=O)O)CCN(CC(=O)O)CCN(CC(=O)O)CC1)[C@@H](C)O)C(=O)NC1(C(=O)N[C@@H](Cc2ccncc2)C(N)=O)CCN(C(=N)N)CC1 [Compound 221] ({DOTA}-[dY][Ala(9-anthryl)]NTF[azaGly]L[Api(1-amidino)][4Pal]-NH2)	< 10 nM
Cc1ccc(CNCC(=O)N2CCC(NC(=O)[C@H](CC(C)C)NC(=O)NNC(=O)[C@H](Cc3ccccc3)NC(=O)[C@@H](NC(=O)[C@H](CC(N)=O)NC(=O)[C@@H](Cc3ccncc3)NC(=O)CCCCCNC(=O)CN3CCN(CC(=O)O)CCN(CC(=O)O)CCN(CC(=O)O)CC3)[C@@H](C)O)(C(=O)N[C@@H](Cc3c[nH]c4ccccc34)C(N)=O)CC2)cc1F [Compound 296] ({DOTA-Ahx}-[d4Pal]NTF[azaGly]L[Api](Gly(N-(3-F-4-Me-benzyl)))W-NH2)	< 10 nM
CC(C)C[C@H](NC(=O)NNC(=O)[C@H](Cc1ccccc1)NC(=O)[C@@H](NC(=O)[C@H](CC(N)=O)NC(=O)[C@@H](Cc1ccc2ccccc2c1)NC(=O)[C@@H](Cc1ccc(O)cc1)NC(=O)CCCCCNC(=O)CN1CCN(CC(=O)O)CCN(CC(=O)O)CCN(CC(=O)O)CC1)[C@@H](C)O)C(=O)NC1(C(=O)N[C@@H](Cc2ccccc2)C(N)=O)CCN(C(=N)N)CC1 [Compound 300] ({DOTA-Ahx}-[dY][d2Nal]NTF[azaGly]L[Api(1-amidino)]F-NH2)	< 10 nM
Cc1ccc(CNCC(=O)N2CCC(NC(=O)[C@H](CC(C)C)NC(=O)NNC(=O)[C@H](Cc3ccccc3)NC(=O)[C@@H](NC(=O)[C@H](CC(N)=O)NC(=O)[C@H](CCC(=O)O)NC(=O)CCCCCNC(=O)CN3CCN(CC(=O)O)CCN(CC(=O)O)CCN(CC(=O)O)CC3)[C@@H](C)O)(C(=O)N[C@@H](Cc3c[nH]c4ccccc34)C(N)=O)CC2)cc1F [Compound 238] ({DOTA-Ahx}-ENTF[azaGly]L[Api](Gly(N-(3-F-4-Me-benzyl)))W-NH2)	< 10 nM
Cc1ccc(CNCC(=O)N2CCC(NC(=O)[C@H](CC(C)C)NC(=O)NNC(=O)[C@H](Cc3ccccc3)NC(=O)[C@@H](NC(=O)CN3CCC(NC(=O)CN4CCN(CC(=O)O)CCN(CC(=O)O)CCN(CC(=O)O)CC4)CC3)[C@@H](C)O)(C(=O)N[C@@H](Cc3ccc(O)cc3)C(N)=O)CC2)cc1F [Compound 250] ({DOTA}-[X1]TF[azaGly]L[Api](Gly(N-(3-F-4-Me-benzyl)))Y-NH2)	< 10 nM
Cc1ccc(CNCC(=O)N2CCC(NC(=O)[C@H](CC(C)C)NC(=O)NNC(=O)[C@H](Cc3ccccc3)NC(=O)[C@@H](NC(=O)[C@H](CC(N)=O)NC(=O)[C@@H](Cc3ccc4ccccc4c3)NC(=O)CCCCCNC(=O)CN3CCN(CC(=O)O)CCN(CC(=O)O)CCN(CC(=O)O)CC3)[C@@H](C)O)(C(=O)N[C@@H](Cc3ccncc3)C(N)=O)CC2)cc1F [Compound 292] ({DOTA-Ahx}-[d2Nal]NTF[azaGly]L[Api](Gly(N-(3-F-4-Me-benzyl)))[4Pal]-NH2)	< 10 nM
Cc1ccc(CNCC(=O)N2CCC(NC(=O)[C@H](CC(C)C)NC(=O)NNC(=O)[C@H](Cc3ccccc3)NC(=O)[C@@H](C)NC(=O)[C@@H](C)NC(=O)[C@@H](C)NC(=O)[C@@H](C)NC(=O)[C@@H](C)NC(=O)CCCCCNC(=O)CN3CCN(CC(=O)O)CCN(CC(=O)O)CCN(CC(=O)O)CC3)(C(=O)N[C@@H](Cc3c[nH]c4ccccc34)C(N)=O)CC2)cc1F [Compound 13] ({DOTA-Ahx}-[dA][dA][dA][dA][dA]F[azaGly]L[Api](Gly(N-(3-F-4-Me-benzyl)))W-NH2)	10 to 100 nM
CSCC[C@H](NC(=O)c1ccc(CNC(=O)CN2CCN(CC(=O)O)CCN(CC(=O)O)CCN(CC(=O)O)CC2)cc1)C(=O)N[C@@H](Cc1ccccc1)C(=O)N[C@@H](CCCCNC(=O)CCCCC(=O)N[C@@H](Cc1ccccc1)C(=O)NNC(=O)N[C@@H](CC(C)C)C(=O)NC1(C(=O)N[C@@H](Cc2c[nH]c3ccccc23)C(N)=O)CCN(C(=O)CNCc2ccc(C)c(F)c2)CC1)C(=O)O [Compound 203]	< 10 nM
Cc1ccc(CNCC(=O)N2CCC(NC(=O)[C@H](CC(C)C)n3cc([C@H](Cc4ccccc4)NC(=O)[C@H](N)CCCCNC(=O)CN4CCN(CC(=O)O)CCN(CC(=O)O)CCN(CC(=O)O)CC4)nn3)(C(=O)N[C@@H](Cc3c[nH]c4ccccc34)C(N)=O)CC2)cc1F [Compound 39]	> 100 nM
Cc1ccc(CNCC(=O)N2CCC(NC(=O)[C@H](CC(C)C)NC(=O)NNC(=O)[C@H](Cc3cccc(F)c3)NC(=O)[C@@H](NC(=O)[C@H](CC(N)=O)NC(=O)[C@H](CCCCNC(=O)CN3CCN(CC(=O)O)CCN(CC(=O)O)CCN(CC(=O)O)CC3)NC(=O)[C@@H](Cc3ccc(O)cc3)NC(=O)COCCOCCO)[C@@H](C)O)(C(=O)N[C@@H](Cc3c[nH]c4ccccc34)C(N)=O)CC2)cc1F [Compound 64] ({Acetyl(2-(HOCH2CH2OCH2CH2O))}-[dY]K(DOTA)NT[Phe(3-F)][azaGly]L[Api](Gly(N-(3-F-4-Me-benzyl)))W-NH2)	< 10 nM
CCCCCCCCNCC(=O)N1CCC(NC(=O)[C@H](CC(C)C)NC(=O)NNC(=O)[C@H](Cc2ccccc2)NC(=O)[C@@H](NC(=O)[C@H](CC(N)=O)NC(=O)[C@@H](Cc2ccc3ccccc3c2)NC(=O)[C@@H](Cc2ccc(O)cc2)NC(=O)CCCCCNC(=O)CN2CCN(CC(=O)O)CCN(CC(=O)O)CCN(CC(=O)O)CC2)[C@@H](C)O)(C(=O)N[C@H](Cc2c[nH]c3ccccc23)C(N)=O)CC1 [Compound 374] ({DOTA-Ahx}-[dY][d2Nal]NTF[azaGly]L[Api](N(octyl)Gly)[dW]-NH2)	< 10 nM
CCc1cc(-c2ccccc2OCCNC(=O)[C@H](Cc2ccccc2)NC(=O)CCCCCNC(=O)CN2CCN(CC(=O)O)CCN(CC(=O)O)CCN(CC(=O)O)CC2)ccc1C(=O)NC1(C(=O)N[C@@H](Cc2c[nH]c3ccccc23)C(N)=O)CCN(C(=O)CNCc2ccc(C)c(F)c2)CC1 [Compound 284]	10 to 100 nM
Cc1ccc(CNCC(=O)N2CCC(NC(=O)[C@H](CC(C)C)SC(C)(C)CNC(=O)[C@H](Cc3ccccc3)NC(=O)CCCCCNC(=O)CN3CCN(CC(=O)O)CCN(CC(=O)O)CCN(CC(=O)O)CC3)(C(=O)N[C@@H](Cc3c[nH]c4ccccc34)C(N)=O)CC2)cc1F [Compound 138]	10 to 100 nM
CC(C)C[C@H](NC(=O)NNC(=O)[C@H](Cc1ccccc1)NC(=O)[C@@H](NC(=O)[C@H](CC(N)=O)NC(=O)[C@@H](Cc1ccc2ccccc2c1)NC(=O)[C@@H](Cc1ccc(O)cc1)NC(=O)CCCCCNC(=O)CN1CCN(CC(=O)O)CCN(CC(=O)O)CCN(CC(=O)O)CC1)[C@@H](C)O)C(=O)NC1(C(=O)N[C@H](Cc2c[nH]c3ccccc23)C(N)=O)CCN(C(=O)CNCc2ccc3ccccc3c2)CC1 [Compound 376] ({DOTA-Ahx}-[dY][d2Nal]NTF[azaGly]L[Api](X5)[dW]-NH2)	10 to 100 nM

— patent US20250312499A1, “KISSPEPTIN RECEPTOR (KISS1R) TARGETED THERAPEUTICS AND USES THEREOF” (priority 2024, published 2025)
